Results published in ChEMBL document CHEMBL4118119, “Development of novel pyridazinone-based adenosine receptor ligands” (Bioorg Med Chem Lett, 2018).
Blank lines part the entries; values can stand above or below the compound they belong to.

Key:
[1] = biological target: T1, Adenosine receptor A2b (Homo sapiens) (UniProt P29275); experiment: Antagonist activity at recombinant human A2B receptor expressed in CHO cells assessed as inhibition of NECA-stimulated cAMP production at 0.001 to 1 uM by Alpha screen assay relative to control; format: functional, cell-based
T1 sequence (whole entry): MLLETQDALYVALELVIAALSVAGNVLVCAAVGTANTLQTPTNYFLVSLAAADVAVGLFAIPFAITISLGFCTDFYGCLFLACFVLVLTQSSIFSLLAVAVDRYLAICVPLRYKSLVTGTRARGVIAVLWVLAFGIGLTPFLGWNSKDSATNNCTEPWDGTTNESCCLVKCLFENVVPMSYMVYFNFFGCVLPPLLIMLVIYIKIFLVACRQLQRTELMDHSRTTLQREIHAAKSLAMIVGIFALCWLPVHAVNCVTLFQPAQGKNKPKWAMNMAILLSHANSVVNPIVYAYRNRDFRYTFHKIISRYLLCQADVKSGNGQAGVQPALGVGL

[2] = biological target: T2, Adenosine receptor A1 (Homo sapiens, UniProt P30542); experiment: Displacement of [3H]DPCPX from recombinant human A1 receptor expressed in CHO cell membranes measured after 90 mins by scintillation counting method
T2 sequence (P30542 whole entry): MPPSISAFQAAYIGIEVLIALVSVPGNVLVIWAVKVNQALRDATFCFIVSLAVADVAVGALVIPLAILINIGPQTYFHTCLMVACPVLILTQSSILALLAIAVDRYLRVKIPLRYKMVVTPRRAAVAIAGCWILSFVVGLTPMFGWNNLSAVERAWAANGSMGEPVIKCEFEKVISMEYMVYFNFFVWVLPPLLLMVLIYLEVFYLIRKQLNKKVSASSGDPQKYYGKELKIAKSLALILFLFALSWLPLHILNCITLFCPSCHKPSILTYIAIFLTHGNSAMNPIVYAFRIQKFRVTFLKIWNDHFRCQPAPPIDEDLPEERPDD

[3] = biological target: T3, Adenosine receptor A3 (Homo sapiens) (UniProt P0DMS8); experiment: Displacement of [125I]-ABMECA from recombinant human A3 receptor expressed in CHO cell membranes at 1 uM measured after 120 mins by scintillation counting method relative to control
T3 sequence (whole entry): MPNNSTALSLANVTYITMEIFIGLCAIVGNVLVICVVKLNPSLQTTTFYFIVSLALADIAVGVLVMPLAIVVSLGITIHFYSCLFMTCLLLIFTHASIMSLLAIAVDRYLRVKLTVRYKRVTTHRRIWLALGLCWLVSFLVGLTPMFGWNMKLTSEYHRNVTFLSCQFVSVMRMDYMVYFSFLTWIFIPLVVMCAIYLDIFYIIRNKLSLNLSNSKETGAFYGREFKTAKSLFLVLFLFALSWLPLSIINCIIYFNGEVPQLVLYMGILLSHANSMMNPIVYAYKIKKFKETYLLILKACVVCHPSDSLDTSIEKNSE

[4] = biological target: T4, Adenosine receptor A2a (Homo sapiens, UniProt P29274); experiment: Displacement of [3H]-ZM241385 from recombinant human A2A receptor expressed in CHO cell membranes at 1 uM measured after 60 mins by scintillation counting method relative to control
[5] = biological target: T5, Adenosine receptor A1 (Homo sapiens) (UniProt P30542); experiment: Displacement of [3H]DPCPX from recombinant human A1 receptor expressed in CHO cell membranes at 1 uM measured after 90 mins by scintillation counting method relative to control
T5 sequence (whole entry): T2 sequence (P30542 whole entry)

[6] = biological target: T4, Adenosine receptor A2a; experiment: Displacement of [3H]-ZM241385 from recombinant human A2A receptor expressed in CHO cell membranes measured after 60 mins by scintillation counting method
[7] = biological target: T6, Adenosine receptor A3 (Homo sapiens, UniProt P0DMS8); experiment: Displacement of [125I]-ABMECA from recombinant human A3 receptor expressed in CHO cell membranes measured after 120 mins by scintillation counting method
T6 sequence (P0DMS8 whole entry): T3 sequence (whole entry)

T4 sequence (P29274 whole entry): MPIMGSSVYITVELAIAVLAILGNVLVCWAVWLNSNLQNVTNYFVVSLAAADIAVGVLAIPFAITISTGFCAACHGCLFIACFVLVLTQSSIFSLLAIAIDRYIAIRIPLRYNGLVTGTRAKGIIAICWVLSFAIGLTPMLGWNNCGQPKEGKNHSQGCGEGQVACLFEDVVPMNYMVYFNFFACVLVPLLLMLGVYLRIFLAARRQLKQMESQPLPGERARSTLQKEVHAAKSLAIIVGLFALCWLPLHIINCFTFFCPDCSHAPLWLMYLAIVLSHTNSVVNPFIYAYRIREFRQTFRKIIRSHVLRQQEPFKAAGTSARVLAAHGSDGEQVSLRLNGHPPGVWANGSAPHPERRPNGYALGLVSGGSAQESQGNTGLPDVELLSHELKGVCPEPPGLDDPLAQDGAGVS

Structure (SMILES): Nn1nc(-c2ccccn2)c2sccc2c1=O
- inhibition [1]: 1%
- Ki [2]: 3720 nM
- inhibition [3]: 1%
- inhibition [4]: 1%

Structure (SMILES): CCc1nn(CC)c(=O)c2ccsc12
- inhibition [5]: 3%
- inhibition [1]: 1%
- inhibition [3]: 14%
- inhibition [4]: 7%

Structure (SMILES): Nn1nc(-c2ccccc2)c2sccc2c1=O
- inhibition [5]: 16%
- inhibition [1]: 1%
- inhibition [3]: 1%
- inhibition [4]: 12%

Structure (SMILES): CCc1nn(CC)c(=O)c2cc(-c3ccccc3)sc12
- inhibition [5]: 4%
- Ki [6]: 3140 nM
- inhibition [1]: 1%
- inhibition [3]: 10%

Structure (SMILES): Nn1nc(-c2cccs2)c2sccc2c1=O
- inhibition [1]: 1%
- Ki [2]: 3540 nM
- inhibition [3]: 1%
- inhibition [4]: 1%

Structure (SMILES): CCn1nc(-c2ccccc2)c2sccc2c1=O
- Ki [7]: 2590 nM
- inhibition [1]: 1%
- Ki [2]: 2670 nM
- inhibition [4]: 17%

Structure (SMILES): Nn1nc(-c2nccs2)c2sccc2c1=O
- inhibition [1]: 1%
- Ki [2]: 2870 nM
- inhibition [3]: 5%
- inhibition [4]: 15%

Continued by falling Ki [2], values first:

- Ki [6]: 3390 nM
- inhibition [1]: 1%
- Ki [2]: 1150 nM
- inhibition [3]: 1%
Structure (SMILES): O=c1[nH]nc(-c2nccs2)c2sccc12

- inhibition [1]: 1%
- Ki [2]: 912 nM
- inhibition [3]: 2%
- inhibition [4]: 2%
Structure (SMILES): CC(C)n1nc(-c2ccccn2)c2sccc2c1=O

- Ki [6]: 2870 nM
- inhibition [1]: 1%
- Ki [2]: 782 nM
- inhibition [3]: 1%
Structure (SMILES): CCn1nc(-c2ccccn2)c2sccc2c1=O

- inhibition [1]: 1%
- Ki [2]: 724 nM
- inhibition [3]: 1%
- inhibition [4]: 1%
Structure (SMILES): CCn1nc(-c2cccs2)c2sccc2c1=O

- Ki [6]: 2490 nM
- Ki [7]: 2930 nM
- inhibition [1]: 1%
- Ki [2]: 113 nM
Structure (SMILES): CCn1nc(-c2nccs2)c2sccc2c1=O
